Measured values: patent US11945816B2, “Inhibitors of EGFR and/or HER2 and methods of use” (Dana-Farber Cancer Institute, Inc., priority 2017, dated 2024)

Columns and labels:
Format in all cases: cell-based
[1] = target: T1, HER2 InsWLV transformed Ba/F3 cells (Homo sapiens, UniProt P04626, INS773WL/M774V); assay: Proliferation inhibition assay, HER2 InsWLV transformed Ba/F3 cells; settings: MTS assay, 72 hours, Table 9 key
T1 construct: expressed in transfected cells; host or cells: Ba/F3
Description: (§1) Cell growth inhibition can be assessed by MTS assay or by Cell Titer Glo Luminescent Cell viability assay (Promega®). Cells are seeded and grow in culture plates before they are exposed to representative compounds of the application for various duration. The viability of the cells are then assessed. […] The growth curves can be fitted using a nonlinear regression model with sigmoidal dose response.
(§2) Cell growth inhibition was assessed by MTS assay for Ba/F3, DFCI58-229, and DFCI127c cells, or by Cell Titer Glo Luminescent Cell viability assay (Promega®) for DFC1362JC cells, 3000 Ba/F3 cells were seeded for per well in 96-well plates, and were exposed to representative compounds of the application (3.3 nM to 10 μM) for 72 hours. For DFCI58-229, DFCI127c, and DFC1362JC cells, 5000 cells were seeded per well. All experimental points included 6 to 12 wells. […] The growth curves were fitted using a nonlinear regression model with sigmoidal dose response.
(§3) Activities of representative compounds of the present application in inhibiting EGFR and HER2 were tested by MTS assay (for Ba/F3 cell, DFCI58-229 cell, and DFCI127c cells) or by CellTiter-Glot luminescent cell viability assay (for DFCI362JC cells). For assays with Ba/F3 cells, 3000 cells were seeded for per well in 96-well plates and were exposed to indicated compounds with a concentration of 3.3 to 10 μM for 72 hours. For assays with DFCI58-229 cell, DFCI127c cell, or DFCI362JC cell, 5000 cells were seeded per well in 96-well plates and were exposed to indicated compounds with a concentration of 3.3 to 10 μM for 72 hours.

[2] = target: T2, EGFR InsNPG (D770_N771insNPG) transformed Ba/F3 cells (Homo sapiens, UniProt P00533, INS770NPG); assay: Proliferation inhibition assay, EGFR InsNPG transformed Ba/F3 cells; settings: MTS assay, 72 hours
T2 construct: expressed in transfected cells; host or cells: Ba/F3
Description: as §1, §2, §3

[3] = target: T3, EGFR InsHH (Y764_V765insHH) transformed Ba/F3 cells (Homo sapiens, UniProt P00533, INS764HH); assay: Proliferation inhibition assay, EGFR InsHH transformed Ba/F3 cells; settings: MTS assay, 72 hours
T3 construct: expressed in transfected cells; host or cells: Ba/F3
Description: as §1, §2, §3

[4] = target: T4, HER2 InsVC (G776delinsVC) transformed Ba/F3 cells (Homo sapiens, UniProt P04626, G776C/INS775V); assay: Proliferation inhibition assay, HER2 InsVC transformed Ba/F3 cells; settings: MTS assay, 72 hours, Table 9 key
T4 construct: expressed in transfected cells; host or cells: Ba/F3
Description: as §1, §2, §3

[5] = target: T5, EGFR InsSVD (D770_N771insSVD) transformed Ba/F3 cells (Homo sapiens, UniProt P00533, INS770SVD); assay: Proliferation inhibition assay, EGFR InsSVD transformed Ba/F3 cells; settings: MTS assay, 72 hours
T5 construct: expressed in transfected cells; host or cells: Ba/F3
Description: as §1, §2, §3

[6] = target: T6, wild-type HER2 transformed Ba/F3 cells (Homo sapiens, UniProt P04626); assay: Proliferation inhibition assay, wild-type HER2 transformed Ba/F3 cells; settings: MTS assay, 72 hours, Table 9 key
T6 construct: expressed in transfected cells; host or cells: Ba/F3
Description: as §1, §2, §3

[7] = target: T7, HER2 InsGSP (P780_Y781insGSP) transformed Ba/F3 cells (Homo sapiens, UniProt P04626, INS780GSP); assay: Proliferation inhibition assay, HER2 InsGSP transformed Ba/F3 cells; settings: MTS assay, 72 hours, Table 9 key
T7 construct: expressed in transfected cells; host or cells: Ba/F3
Description: as §1, §2, §3

[8] = target: T8, EGFR InsGY (D770delinsGY) transformed Ba/F3 cells (Homo sapiens, UniProt P00533, D770Y/INS769G); assay: Proliferation inhibition assay, EGFR InsGY transformed Ba/F3 cells; settings: MTS assay, 72 hours
T8 construct: expressed in transfected cells; host or cells: Ba/F3
Description: as §1, §2, §3

[9] = target: T9, EGFR InsH transformed Ba/F3 cells (Homo sapiens, UniProt P00533, DUP773-773); assay: Proliferation inhibition assay, EGFR InsH transformed Ba/F3 cells; settings: MTS assay, 72 hours
T9 construct: expressed in transfected cells; host or cells: Ba/F3
Description: as §1, §2, §3

[10] = target: T10, wild-type EGFR transformed Ba/F3 cells (Homo sapiens, UniProt P00533); assay: Proliferation inhibition assay, wild-type EGFR transformed Ba/F3 cells; settings: MTS assay, 72 hours
T10 construct: expressed in transfected cells; host or cells: Ba/F3
Description: as §1, §2, §3

[11] = target: T11, HER2 InsYVMA (A775_G776insYVMA) transformed Ba/F3 cells (Homo sapiens, UniProt P04626, INS775YVMA); assay: Proliferation inhibition assay, HER2 InsYVMA transformed Ba/F3 cells; settings: MTS assay, 72 hours, Table 9 key
T11 construct: expressed in transfected cells; host or cells: Ba/F3
Description: as §1, §2, §3

[12] = target: T12, EGFR InsASV (V769_D770insASV) transformed Ba/F3 cells (Homo sapiens, UniProt P00533, INS769ASV); assay: Proliferation inhibition assay, EGFR InsASV transformed Ba/F3 cells; settings: MTS assay, 72 hours
T12 construct: expressed in transfected cells; host or cells: Ba/F3
Description: as §1, §2, §3

T9 sequence (P00533 with tags, fused parts or gaps DUP773-773): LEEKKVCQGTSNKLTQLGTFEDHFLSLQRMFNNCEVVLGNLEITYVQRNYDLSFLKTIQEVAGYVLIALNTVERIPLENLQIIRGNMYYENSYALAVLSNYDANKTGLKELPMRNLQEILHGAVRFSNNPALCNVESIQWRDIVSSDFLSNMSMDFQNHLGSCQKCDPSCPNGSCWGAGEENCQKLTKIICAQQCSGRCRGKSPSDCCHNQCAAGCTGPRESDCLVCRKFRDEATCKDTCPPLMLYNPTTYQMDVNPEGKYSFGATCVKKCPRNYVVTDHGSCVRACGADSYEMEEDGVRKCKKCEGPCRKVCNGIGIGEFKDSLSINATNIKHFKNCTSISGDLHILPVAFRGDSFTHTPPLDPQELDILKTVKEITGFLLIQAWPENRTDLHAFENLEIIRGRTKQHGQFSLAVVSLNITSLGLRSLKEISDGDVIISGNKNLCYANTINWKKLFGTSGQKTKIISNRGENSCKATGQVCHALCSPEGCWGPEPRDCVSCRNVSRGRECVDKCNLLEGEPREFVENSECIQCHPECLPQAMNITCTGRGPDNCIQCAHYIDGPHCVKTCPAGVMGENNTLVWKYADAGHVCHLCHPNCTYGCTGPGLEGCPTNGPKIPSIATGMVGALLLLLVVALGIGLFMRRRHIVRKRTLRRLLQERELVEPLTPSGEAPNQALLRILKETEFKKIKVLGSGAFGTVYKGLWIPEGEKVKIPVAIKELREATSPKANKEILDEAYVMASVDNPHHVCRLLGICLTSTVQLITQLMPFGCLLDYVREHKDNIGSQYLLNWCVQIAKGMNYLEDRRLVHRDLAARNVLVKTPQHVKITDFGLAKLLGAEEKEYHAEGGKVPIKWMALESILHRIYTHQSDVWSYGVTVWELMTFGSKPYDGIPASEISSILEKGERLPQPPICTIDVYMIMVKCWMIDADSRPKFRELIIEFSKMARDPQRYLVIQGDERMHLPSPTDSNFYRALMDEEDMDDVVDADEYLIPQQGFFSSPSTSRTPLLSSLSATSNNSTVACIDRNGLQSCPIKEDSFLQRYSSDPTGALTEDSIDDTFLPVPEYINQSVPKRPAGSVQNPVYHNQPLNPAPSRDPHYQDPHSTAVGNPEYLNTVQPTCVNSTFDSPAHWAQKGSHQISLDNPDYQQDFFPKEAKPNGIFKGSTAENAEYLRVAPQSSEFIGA
T10 sequence (P00533 25-1210): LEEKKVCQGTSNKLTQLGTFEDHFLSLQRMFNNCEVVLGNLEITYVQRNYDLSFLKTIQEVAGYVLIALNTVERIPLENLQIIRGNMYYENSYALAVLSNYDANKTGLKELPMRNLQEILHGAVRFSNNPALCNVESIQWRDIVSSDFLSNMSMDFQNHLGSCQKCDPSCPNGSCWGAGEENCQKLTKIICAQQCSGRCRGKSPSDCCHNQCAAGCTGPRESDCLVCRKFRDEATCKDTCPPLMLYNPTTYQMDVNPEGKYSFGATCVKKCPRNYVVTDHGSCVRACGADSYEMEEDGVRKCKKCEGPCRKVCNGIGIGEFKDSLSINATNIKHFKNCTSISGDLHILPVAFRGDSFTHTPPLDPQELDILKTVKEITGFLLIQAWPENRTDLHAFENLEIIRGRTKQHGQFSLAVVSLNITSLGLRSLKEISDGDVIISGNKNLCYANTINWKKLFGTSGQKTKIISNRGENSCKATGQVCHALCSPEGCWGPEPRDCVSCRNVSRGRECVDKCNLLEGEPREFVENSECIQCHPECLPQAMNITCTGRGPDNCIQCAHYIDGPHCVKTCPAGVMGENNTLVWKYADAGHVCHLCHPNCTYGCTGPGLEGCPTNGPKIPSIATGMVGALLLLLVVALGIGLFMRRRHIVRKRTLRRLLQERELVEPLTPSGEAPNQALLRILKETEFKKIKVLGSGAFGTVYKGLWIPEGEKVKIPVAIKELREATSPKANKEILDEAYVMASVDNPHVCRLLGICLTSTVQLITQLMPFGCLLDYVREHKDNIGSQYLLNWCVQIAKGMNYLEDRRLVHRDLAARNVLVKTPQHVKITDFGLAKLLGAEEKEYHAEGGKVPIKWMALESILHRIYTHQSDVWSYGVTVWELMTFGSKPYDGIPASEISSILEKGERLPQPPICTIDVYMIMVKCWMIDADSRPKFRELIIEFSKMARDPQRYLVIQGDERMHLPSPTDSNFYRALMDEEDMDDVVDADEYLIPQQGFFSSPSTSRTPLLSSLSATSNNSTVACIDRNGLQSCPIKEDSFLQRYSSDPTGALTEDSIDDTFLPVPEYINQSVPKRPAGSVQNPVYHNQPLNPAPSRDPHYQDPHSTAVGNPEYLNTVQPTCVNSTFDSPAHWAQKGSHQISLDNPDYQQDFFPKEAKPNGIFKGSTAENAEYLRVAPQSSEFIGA
T1 sequence (P04626 with tags, fused parts or gaps INS773WL/M774V): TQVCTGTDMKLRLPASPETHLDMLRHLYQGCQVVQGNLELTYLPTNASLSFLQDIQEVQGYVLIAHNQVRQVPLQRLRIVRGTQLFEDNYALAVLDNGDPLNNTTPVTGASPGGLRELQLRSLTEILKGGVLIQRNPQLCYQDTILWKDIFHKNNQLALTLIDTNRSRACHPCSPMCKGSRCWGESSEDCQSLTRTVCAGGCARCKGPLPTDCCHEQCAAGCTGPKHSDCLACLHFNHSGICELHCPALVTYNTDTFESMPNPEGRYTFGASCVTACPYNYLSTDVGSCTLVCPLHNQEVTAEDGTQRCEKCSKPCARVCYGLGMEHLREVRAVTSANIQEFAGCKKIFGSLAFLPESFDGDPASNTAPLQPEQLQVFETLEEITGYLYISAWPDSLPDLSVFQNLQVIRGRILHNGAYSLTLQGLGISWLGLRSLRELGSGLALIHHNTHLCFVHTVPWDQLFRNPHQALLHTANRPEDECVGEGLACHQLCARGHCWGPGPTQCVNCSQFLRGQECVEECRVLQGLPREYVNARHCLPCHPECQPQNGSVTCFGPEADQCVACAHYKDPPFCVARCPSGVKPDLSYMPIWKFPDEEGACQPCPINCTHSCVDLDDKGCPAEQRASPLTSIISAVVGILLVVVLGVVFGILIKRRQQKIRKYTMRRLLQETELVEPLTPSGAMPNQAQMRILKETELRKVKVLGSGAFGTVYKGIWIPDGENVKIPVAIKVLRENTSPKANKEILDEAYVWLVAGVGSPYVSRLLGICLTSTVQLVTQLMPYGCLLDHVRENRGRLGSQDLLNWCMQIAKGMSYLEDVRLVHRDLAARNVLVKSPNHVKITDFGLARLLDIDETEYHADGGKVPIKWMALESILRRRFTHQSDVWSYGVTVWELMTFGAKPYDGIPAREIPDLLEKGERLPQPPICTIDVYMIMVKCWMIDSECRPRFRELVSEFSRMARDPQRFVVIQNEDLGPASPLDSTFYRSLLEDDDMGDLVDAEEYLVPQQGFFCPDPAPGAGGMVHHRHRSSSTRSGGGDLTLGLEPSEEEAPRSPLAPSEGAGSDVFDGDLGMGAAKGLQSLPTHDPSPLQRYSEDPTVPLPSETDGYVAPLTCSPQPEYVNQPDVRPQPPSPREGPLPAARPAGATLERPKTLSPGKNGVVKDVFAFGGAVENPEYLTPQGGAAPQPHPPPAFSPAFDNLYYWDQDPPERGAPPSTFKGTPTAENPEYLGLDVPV
T3 sequence (P00533 with tags, fused parts or gaps INS764HH): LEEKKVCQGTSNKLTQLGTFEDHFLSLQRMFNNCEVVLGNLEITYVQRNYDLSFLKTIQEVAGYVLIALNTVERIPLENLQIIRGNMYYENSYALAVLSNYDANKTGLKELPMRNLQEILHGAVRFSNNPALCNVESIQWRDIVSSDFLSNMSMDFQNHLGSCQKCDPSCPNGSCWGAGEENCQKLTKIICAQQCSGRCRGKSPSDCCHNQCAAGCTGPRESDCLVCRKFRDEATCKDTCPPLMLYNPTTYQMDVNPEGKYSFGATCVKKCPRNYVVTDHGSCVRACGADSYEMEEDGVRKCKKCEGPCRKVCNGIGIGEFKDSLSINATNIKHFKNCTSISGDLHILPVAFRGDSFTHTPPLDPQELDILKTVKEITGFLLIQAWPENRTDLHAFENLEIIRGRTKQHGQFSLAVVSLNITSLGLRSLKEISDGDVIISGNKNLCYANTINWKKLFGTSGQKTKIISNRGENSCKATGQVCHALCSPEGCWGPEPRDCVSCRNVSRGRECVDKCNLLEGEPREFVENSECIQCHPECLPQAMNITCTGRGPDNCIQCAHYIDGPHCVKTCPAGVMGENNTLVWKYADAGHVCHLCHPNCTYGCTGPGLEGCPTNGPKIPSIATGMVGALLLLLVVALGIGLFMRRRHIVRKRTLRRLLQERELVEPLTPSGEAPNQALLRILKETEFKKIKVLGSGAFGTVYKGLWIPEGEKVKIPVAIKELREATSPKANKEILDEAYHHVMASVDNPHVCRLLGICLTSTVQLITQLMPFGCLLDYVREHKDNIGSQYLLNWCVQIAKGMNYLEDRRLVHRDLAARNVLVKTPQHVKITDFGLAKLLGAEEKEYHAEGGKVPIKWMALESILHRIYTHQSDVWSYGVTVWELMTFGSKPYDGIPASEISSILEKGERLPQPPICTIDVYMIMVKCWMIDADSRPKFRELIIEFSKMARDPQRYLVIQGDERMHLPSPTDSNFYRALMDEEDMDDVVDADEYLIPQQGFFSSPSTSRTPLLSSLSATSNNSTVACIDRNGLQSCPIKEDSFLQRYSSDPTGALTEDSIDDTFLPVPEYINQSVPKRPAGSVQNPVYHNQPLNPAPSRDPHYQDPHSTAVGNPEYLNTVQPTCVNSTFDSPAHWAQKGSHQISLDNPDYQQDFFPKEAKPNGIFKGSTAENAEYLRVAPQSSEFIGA

Compound	EC50 [1]	EC50 [2]	EC50 [3]	EC50 [4]	EC50 [5]	EC50 [6]	EC50 [7]	EC50 [8]	EC50 [9]	EC50 [10]	EC50 [11]	EC50 [12]
C=CC(=O)Nc1cccc(-n2c(=O)c(Oc3ccc(F)cc3F)cc3cnc(Nc4cn(C)nc4OCC)nc32)c1 [Compound 8]	< 100 nM	< 200 nM	< 200 nM	< 100 nM	< 200 nM	< 100 nM	< 100 nM	< 200 nM	< 200 nM	< 200 nM	< 100 nM	< 200 nM
C=CC(=O)Nc1cccc(-n2c(=O)c(Oc3ccc(F)cc3F)cc3cnc(Nc4ccc(N5CCN(C)CC5)cc4OC)nc32)c1 [Compound 6]	< 100 nM	< 200 nM	< 200 nM	100 to 250 nM	< 200 nM	< 100 nM	< 100 nM	< 200 nM	< 200 nM	< 200 nM	< 100 nM	< 200 nM
C=CC(=O)N1CCC[C@@H](n2c(=O)c(Oc3ccc(F)cc3F)cc3cnc(Nc4cnn(C)c4)nc32)C1 [Compound 15, (R)-8-(1-acryloylpiperidin-3-yl)-6-(2,4-difluorophenoxy)-2-((1-methyl-1H-pyrazol-4-yl)amino)pyrido[2,3-d]pyrimidin-7(8H)-one]	100 to 250 nM	< 200 nM	200 to 600 nM	< 100 nM	< 200 nM	< 100 nM	< 100 nM	< 200 nM	> 1000 nM	< 200 nM	< 100 nM	< 200 nM
C=CC(=O)Nc1cccc(-n2c(=O)c(Oc3ccc(F)cc3F)cc3cnc(Nc4cn(C)nc4OC)nc32)c1 [Compound 4]	< 100 nM	< 200 nM	< 200 nM	< 100 nM	< 200 nM	< 100 nM	< 100 nM	< 200 nM	< 200 nM	< 200 nM	< 100 nM	< 200 nM
C=CC(=O)Nc1cccc(-n2c(=O)c(Oc3ccc(F)cc3F)cc3cnc(Nc4cnn(C(F)F)c4)nc32)c1 [Compound 5]	100 to 250 nM	< 200 nM	< 200 nM	100 to 250 nM	< 200 nM	< 100 nM	< 100 nM	< 200 nM	< 200 nM	< 200 nM	< 100 nM	< 200 nM
CN(C)C/C=C/C(=O)Nc1cccc(-n2c(=O)c(Oc3ccc(F)cc3F)cc3cnc(Nc4cnn(C)c4)nc32)c1 [Compound 10]	250 to 500 nM	< 200 nM	200 to 600 nM	250 to 500 nM	200 to 600 nM	< 100 nM	< 100 nM	200 to 600 nM	600 to 1000 nM	200 to 600 nM	< 100 nM	< 200 nM
C=CC(=O)Nc1cccc(-n2c(=O)c(Oc3ccc(F)cc3)cc3cnc(Nc4cnn(C)c4)nc32)c1 [Compound 1, N-(3-(6-(4-fluorophenoxy)-2-((1-methyl-1H-pyrazol-4-yl)amino)-7-oxopyrido[2,3-d]pyrimidin-8(7H)-yl)phenyl)acrylamide]	100 to 250 nM	< 200 nM	< 200 nM	< 100 nM	< 200 nM	< 100 nM	< 100 nM	< 200 nM	< 200 nM	< 200 nM	< 100 nM	< 200 nM
C=CC(=O)Nc1cccc(-n2c(=O)c(Oc3ccc(F)cc3F)cc3cnc(Nc4ccc(N5CCC(N6CCN(C)CC6)CC5)cc4)nc32)c1 [Compound 7]	100 to 250 nM	< 200 nM	< 200 nM	100 to 250 nM	< 200 nM	< 100 nM	< 100 nM	< 200 nM	200 to 600 nM	< 200 nM	< 100 nM	< 200 nM
